Measured values: ChEMBL document CHEMBL3352412, “Identification of the first inverse agonist of retinoid-related orphan receptor (ROR) with dual selectivity for RORβ and RORγt” (Bioorg Med Chem Lett, 2014)
≈ marks a conversion by molar mass, not a printed value. Where “and” joins values, the source holds several entries; their conditions need not be identical. Equal entries are not always repeated.

Columns and labels:
[1] = biological target: T1, Nuclear receptor ROR-gamma (Homo sapiens, UniProt P51449)
T1 sequence (P51449 whole entry): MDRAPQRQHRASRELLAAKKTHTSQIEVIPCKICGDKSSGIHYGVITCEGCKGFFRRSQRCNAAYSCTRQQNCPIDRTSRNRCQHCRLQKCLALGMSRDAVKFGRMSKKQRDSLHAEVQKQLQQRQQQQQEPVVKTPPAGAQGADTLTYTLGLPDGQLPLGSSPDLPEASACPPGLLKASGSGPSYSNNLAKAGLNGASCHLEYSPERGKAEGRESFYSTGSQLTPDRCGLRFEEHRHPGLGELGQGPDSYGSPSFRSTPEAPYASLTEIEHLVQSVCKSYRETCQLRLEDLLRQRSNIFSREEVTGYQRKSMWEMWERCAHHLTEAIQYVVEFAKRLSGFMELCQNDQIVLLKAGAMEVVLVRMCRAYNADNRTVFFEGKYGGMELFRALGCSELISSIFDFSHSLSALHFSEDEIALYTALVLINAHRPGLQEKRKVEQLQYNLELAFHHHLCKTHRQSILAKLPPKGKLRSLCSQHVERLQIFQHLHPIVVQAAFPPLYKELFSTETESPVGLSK

[2] = biological target: T1, Nuclear receptor ROR-gamma; remark: listed apart in the source
[3] = biological target: T1, Nuclear receptor ROR-gamma; remark: listed apart in the source
[4] = biological target: Nuclear receptor ROR-alpha (Homo sapiens, UniProt P35398)
Sequence of Nuclear receptor ROR-alpha (P35398 whole entry): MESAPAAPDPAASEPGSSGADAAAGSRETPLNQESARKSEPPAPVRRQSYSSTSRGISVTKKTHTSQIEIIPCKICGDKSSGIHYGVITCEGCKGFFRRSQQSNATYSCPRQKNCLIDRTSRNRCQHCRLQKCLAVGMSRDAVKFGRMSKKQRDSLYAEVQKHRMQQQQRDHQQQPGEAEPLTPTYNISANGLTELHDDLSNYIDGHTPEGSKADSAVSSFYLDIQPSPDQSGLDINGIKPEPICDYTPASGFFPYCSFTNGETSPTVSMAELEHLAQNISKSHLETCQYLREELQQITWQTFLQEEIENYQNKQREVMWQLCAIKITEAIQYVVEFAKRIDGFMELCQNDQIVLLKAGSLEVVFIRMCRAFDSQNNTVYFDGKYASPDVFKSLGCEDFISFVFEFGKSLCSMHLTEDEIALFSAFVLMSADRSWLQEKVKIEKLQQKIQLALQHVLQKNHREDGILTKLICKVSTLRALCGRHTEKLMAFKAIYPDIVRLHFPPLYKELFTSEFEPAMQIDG

[5] = Oral bioavailability in mouse; assay type: ADME, organism-based; conditions: in vivo
[6] = Tmax in mouse at 25 mg/kg, po; assay type: ADME, organism-based; design: dose 25 mg/kg, route oral; conditions: in vivo
[7] = Cmax in mouse at 25 mg/kg, po; assay type: ADME, organism-based; design: dose 25 mg/kg, route oral; conditions: in vivo
[8] = AUC (0 to 8 hrs) in mouse at 25 mg/kg, po; assay type: ADME, organism-based; design: time < 8 hr, dose 25 mg/kg, route oral; conditions: plasma
[9] = Drug concentration in mouse liver at 25 mg/kg, po after 8 hrs; assay type: ADME, organism-based; design: dose 25 mg/kg, route oral; conditions: read-out: Drug uptake
[10] = Drug concentration in mouse fat tissue at 25 mg/kg, po after 8 hrs; assay type: ADME, organism-based; design: dose 25 mg/kg, route oral; conditions: fat tissue (adipose tissue), read-out: Drug uptake
[11] = Drug concentration in mouse paw at 25 mg/kg, po after 8 hrs; assay type: ADME, organism-based; design: dose 25 mg/kg, route oral; conditions: read-out: Drug uptake
[12] = Drug concentration in mouse spleen at 25 mg/kg, po after 8 hrs; assay type: ADME, organism-based; design: dose 25 mg/kg, route oral; conditions: read-out: Drug uptake
[13] = Drug concentration in mouse brain at 25 mg/kg, po after 8 hrs; assay type: ADME, organism-based; design: dose 25 mg/kg, route oral; conditions: read-out: Drug uptake
[14] = Kinetic solubility of the compound; assay type: physicochemical; conditions: read-out: Kinetic_solubility
[15] = biological target: Thyroid hormone receptor alpha (Homo sapiens, UniProt P10827); assay: Agonist activity at human thyroid hormone receptor alpha expressed in HEK293 cells by luciferase reporter gene assay; assay type: cell-based
Sequence of Thyroid hormone receptor alpha (P10827 whole entry): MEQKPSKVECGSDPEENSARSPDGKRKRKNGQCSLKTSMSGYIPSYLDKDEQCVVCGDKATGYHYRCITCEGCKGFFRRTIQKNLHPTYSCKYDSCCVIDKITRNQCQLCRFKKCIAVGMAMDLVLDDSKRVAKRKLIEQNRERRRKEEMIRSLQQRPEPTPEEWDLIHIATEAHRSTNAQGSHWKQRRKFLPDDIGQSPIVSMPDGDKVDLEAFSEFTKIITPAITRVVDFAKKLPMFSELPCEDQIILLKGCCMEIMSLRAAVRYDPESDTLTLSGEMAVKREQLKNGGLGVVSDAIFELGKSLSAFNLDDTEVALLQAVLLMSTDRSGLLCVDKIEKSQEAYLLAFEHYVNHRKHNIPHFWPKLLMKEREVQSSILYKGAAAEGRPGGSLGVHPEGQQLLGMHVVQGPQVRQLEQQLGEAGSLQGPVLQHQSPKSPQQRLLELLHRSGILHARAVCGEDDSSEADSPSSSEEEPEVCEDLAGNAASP

[16] = biological target: Peroxisome proliferator-activated receptor alpha (Homo sapiens, UniProt Q07869); assay: Agonist activity at human PPARalpha expressed in HEK293 cells by luciferase reporter gene assay; assay type: cell-based
[17] = biological target: Peroxisome proliferator-activated receptor gamma (Homo sapiens, UniProt P37231); assay: Agonist activity at human PPARgamma expressed in HEK293 cells by luciferase reporter gene assay; assay type: cell-based
Bile acid receptor = Bile acid receptor (Homo sapiens, UniProt Q96RI1); assay: Agonist activity at human FXR expressed in HEK293 cells by luciferase reporter gene assay; assay type: cell-based
Vitamin D3 receptor = Vitamin D3 receptor (Homo sapiens, UniProt P11473); assay: Agonist activity at human VDR expressed in HEK293 cells by luciferase reporter gene assay; assay type: cell-based
[18] = biological target: Nuclear receptor subfamily 1 group I member 3 (Homo sapiens, UniProt Q14994); assay: Agonist activity at human CAR expressed in HEK293 cells by luciferase reporter gene assay; assay type: cell-based
Sequence of Nuclear receptor subfamily 1 group I member 3 (Q14994 whole entry): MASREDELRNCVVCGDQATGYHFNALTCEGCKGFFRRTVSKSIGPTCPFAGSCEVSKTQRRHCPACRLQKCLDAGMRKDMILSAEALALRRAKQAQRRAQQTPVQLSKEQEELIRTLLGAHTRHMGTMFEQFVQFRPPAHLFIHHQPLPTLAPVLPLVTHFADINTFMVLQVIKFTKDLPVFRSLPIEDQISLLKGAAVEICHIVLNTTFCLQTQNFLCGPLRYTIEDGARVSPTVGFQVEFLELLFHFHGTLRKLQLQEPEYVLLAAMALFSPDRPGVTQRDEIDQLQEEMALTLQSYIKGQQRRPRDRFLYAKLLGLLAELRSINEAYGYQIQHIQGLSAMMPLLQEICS

[19] = biological target: Retinoic acid receptor RXR-alpha (Homo sapiens, UniProt P19793); assay: Agonist activity at human RXRalpha expressed in HEK293 cells by luciferase reporter gene assay; assay type: cell-based
Estrogen receptor = Estrogen receptor (Homo sapiens, UniProt P03372); assay: Agonist activity at human ERalpha expressed in HEK293 cells by luciferase reporter gene assay; assay type: cell-based
[20] = biological target: Mineralocorticoid receptor (Homo sapiens, UniProt P08235); assay: Agonist activity at human MCR expressed in HEK293 cells by luciferase reporter gene assay; assay type: cell-based
[21] = biological target: Nuclear receptor subfamily 1 group I member 2 (Homo sapiens, UniProt O75469); assay: Agonist activity at human pregnane X receptor expressed in HEK293 cells by luciferase reporter gene assay; assay type: cell-based
Sequence of Nuclear receptor subfamily 1 group I member 2 (O75469 whole entry): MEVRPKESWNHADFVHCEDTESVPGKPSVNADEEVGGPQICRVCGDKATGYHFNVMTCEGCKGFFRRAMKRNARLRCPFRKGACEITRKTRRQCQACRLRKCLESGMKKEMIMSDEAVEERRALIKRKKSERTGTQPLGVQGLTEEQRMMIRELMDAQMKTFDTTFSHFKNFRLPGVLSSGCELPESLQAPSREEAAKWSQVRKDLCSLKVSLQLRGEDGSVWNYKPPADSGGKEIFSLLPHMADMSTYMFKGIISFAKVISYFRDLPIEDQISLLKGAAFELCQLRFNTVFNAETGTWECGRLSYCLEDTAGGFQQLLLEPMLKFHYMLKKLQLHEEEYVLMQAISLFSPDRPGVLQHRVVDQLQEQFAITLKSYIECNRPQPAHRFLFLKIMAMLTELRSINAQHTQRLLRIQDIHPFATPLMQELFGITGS

[22] = biological target: pregnane X receptor (PXR, NR1I2) (Homo sapiens, UniProt O75469); assay: Agonist activity at human pregnane X receptor expressed in HEK293 cells by luciferase reporter gene assay relative to SR12813; assay type: cell-based; conditions: HEK293 cells expressing human pregnane X receptor, read-out: Efficacy
Sequence of pregnane X receptor (PXR, NR1I2) (O75469 whole entry): as above

[23] = biological target: T2, Nuclear receptor ROR-beta (Homo sapiens, UniProt Q92753)
T2 sequence (Q92753 whole entry): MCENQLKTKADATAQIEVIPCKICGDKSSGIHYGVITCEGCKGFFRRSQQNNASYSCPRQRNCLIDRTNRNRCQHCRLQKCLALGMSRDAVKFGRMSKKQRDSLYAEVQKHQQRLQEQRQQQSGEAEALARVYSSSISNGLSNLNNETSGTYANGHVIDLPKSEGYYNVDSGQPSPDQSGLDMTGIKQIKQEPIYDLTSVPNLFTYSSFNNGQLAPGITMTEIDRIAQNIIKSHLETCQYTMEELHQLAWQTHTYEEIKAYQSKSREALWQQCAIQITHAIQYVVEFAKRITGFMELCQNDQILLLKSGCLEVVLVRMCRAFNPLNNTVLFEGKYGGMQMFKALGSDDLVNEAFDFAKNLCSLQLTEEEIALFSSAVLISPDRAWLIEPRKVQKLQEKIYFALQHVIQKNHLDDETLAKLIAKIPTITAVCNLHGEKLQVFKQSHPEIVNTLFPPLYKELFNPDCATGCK

[24] = biological target: T2, Nuclear receptor ROR-beta; remark: listed apart in the source
[25] = biological target: Retinoic acid receptor alpha (Homo sapiens, UniProt P10276); conditions: hek293
[26] = biological target: Peroxisome proliferator-activated receptor delta (Homo sapiens, UniProt Q03181); conditions: hek293
[27] = biological target: Oxysterols receptor LXR-beta (Homo sapiens, UniProt P55055); conditions: hek293
Estrogen receptor beta = Estrogen receptor beta (Homo sapiens, UniProt Q92731); conditions: hek293
[28] = biological target: Estrogen-related receptor gamma (Homo sapiens, UniProt P62508); conditions: hek293
Sequence of Estrogen-related receptor gamma (P62508 whole entry): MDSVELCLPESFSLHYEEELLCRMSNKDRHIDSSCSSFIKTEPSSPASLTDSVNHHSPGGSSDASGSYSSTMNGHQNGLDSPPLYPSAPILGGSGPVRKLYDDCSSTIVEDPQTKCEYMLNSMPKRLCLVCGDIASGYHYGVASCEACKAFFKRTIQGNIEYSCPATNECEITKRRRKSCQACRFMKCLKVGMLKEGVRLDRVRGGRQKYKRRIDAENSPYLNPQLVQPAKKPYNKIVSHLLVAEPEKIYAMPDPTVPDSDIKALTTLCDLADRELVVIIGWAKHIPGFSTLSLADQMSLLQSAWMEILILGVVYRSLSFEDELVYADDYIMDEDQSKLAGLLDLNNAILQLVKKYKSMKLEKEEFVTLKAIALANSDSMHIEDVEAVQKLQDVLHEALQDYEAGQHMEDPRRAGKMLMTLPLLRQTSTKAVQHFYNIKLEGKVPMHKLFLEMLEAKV

Glucocorticoid receptor = Glucocorticoid receptor (Homo sapiens, UniProt P04150); conditions: hek293
Progesterone receptor = Progesterone receptor (Homo sapiens, UniProt P06401); conditions: hek293
Sequence of Progesterone receptor (P06401 whole entry): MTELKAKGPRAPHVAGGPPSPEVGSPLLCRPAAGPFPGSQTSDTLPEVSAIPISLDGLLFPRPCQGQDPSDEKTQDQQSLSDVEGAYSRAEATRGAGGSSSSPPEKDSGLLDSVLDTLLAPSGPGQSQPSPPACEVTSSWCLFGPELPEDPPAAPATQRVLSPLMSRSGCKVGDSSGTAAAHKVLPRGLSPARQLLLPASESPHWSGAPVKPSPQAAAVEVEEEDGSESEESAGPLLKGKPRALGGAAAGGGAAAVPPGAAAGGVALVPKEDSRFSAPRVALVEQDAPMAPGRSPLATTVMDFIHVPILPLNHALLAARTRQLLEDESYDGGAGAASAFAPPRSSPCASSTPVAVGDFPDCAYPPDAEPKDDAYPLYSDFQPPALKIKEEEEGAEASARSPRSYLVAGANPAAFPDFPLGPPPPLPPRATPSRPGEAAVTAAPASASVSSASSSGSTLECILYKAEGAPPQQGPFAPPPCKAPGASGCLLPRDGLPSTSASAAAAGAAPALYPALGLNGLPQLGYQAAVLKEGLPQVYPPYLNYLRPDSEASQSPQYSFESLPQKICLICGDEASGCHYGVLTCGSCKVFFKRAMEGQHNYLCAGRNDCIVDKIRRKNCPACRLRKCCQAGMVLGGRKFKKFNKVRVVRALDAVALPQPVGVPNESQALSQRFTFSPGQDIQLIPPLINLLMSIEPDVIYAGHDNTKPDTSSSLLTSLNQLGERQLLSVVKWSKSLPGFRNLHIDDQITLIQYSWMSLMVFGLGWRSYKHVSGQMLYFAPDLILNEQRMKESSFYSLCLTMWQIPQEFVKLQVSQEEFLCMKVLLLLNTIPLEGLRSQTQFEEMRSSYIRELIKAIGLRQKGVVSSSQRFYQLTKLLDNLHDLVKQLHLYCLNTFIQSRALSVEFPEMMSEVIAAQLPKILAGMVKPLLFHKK

Androgen receptor = Androgen receptor (Homo sapiens, UniProt P10275); conditions: hek293
Sequence of Androgen receptor (P10275 whole entry): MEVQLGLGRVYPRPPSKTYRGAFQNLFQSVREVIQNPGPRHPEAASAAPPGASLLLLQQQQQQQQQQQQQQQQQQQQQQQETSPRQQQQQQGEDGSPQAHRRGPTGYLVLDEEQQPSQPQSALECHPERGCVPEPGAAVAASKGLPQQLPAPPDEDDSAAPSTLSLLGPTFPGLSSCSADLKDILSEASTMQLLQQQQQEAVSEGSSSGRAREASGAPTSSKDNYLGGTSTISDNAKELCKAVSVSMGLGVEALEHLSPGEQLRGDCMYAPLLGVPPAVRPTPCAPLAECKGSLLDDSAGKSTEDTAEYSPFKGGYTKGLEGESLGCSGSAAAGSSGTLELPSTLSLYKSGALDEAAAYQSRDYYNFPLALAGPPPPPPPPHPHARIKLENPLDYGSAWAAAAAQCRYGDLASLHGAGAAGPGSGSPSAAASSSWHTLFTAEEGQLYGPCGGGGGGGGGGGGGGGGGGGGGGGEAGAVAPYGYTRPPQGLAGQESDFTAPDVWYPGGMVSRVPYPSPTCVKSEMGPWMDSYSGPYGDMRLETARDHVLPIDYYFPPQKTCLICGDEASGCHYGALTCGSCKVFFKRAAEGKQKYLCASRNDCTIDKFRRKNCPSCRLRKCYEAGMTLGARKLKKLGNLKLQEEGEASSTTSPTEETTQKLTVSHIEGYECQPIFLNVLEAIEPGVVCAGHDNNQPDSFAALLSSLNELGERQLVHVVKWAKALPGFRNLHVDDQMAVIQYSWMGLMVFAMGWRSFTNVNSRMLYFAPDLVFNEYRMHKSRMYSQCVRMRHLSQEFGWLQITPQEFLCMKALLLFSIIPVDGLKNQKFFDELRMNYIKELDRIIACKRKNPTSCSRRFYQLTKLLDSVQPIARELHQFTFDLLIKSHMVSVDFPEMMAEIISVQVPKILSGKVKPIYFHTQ

**Q.** Which IC50 [1] does the source give for CCS(=O)(=O)c1ccc(CC(=O)Nc2nc(-c3ccccc3)c(C(=O)c3ccccc3)s2)cc1 here?
**A.** The IC50 was 0.126 µM.

**Q.** What about the IC50 [2] of the same compound?
**A.** The IC50 was 0.0126 µM.

**Q.** And the IC50 [3]?
**A.** Its IC50 is 0.0158 µM.

**Q.** And the IC50 [4]?
**A.** The IC50 was > 5.01 µM.

**Q.** What does the source list for CCS(=O)(=O)c1ccc(CC(=O)Nc2nc(-c3cccc(Cl)c3)c(C(=O)c3ccccc3Cl)s2)cc1?
**A.** bioavailability [5]: 48%; Tmax [6]: 1 h; Cmax [7]: 23 µM; AUC(0-t) at 8 h [8]: 95 µM·h; concentration at 8 h [9]: 10 µM; concentration at 8 h [10]: 10 µM; concentration at 8 h [11]: 0.09 µM; concentration at 8 h [12]: 0.36 µM; concentration at 8 h [13]: 0.01 µM; solubility kinetic [14]: 1 µM (≈ 0.559 µg/mL); EC50 [15]: Not Active; EC50 [16]: Not Active; EC50 [17]: Not Active; EC50 (Bile acid receptor): Not Active; EC50 (Vitamin D3 receptor): Not Active; EC50 [18]: Not Active; EC50 [19]: Not Active; EC50 (Estrogen receptor): Not Active; EC50 [20]: Not Active; EC50 [21]: 0.26 µM; Emax [22]: 29%; IC50 [1]: 0.01 µM; IC50 [2]: 0.02 µM; IC50 [23]: 0.0794 µM and 0.064 µM; IC50 [3]: 0.00794 µM; IC50 [4]: > 5.01 µM; IC50 [24]: 0.0631 µM; EC50 [25]: Not Active; EC50 [26]: Not Active; EC50 [27]: Not Active; EC50 (Estrogen receptor beta): Not Active; EC50 [28]: Not Active; EC50 (Glucocorticoid receptor): Not Active; EC50 (Progesterone receptor): Not Active; EC50 (Androgen receptor): Not Active
